From the NIST ThermoML archive (doi:10.1016/j.fluid.2008.09.026)
± gives the expanded uncertainty stated by the source.

Conditions: Liquid, Ebulliometric method (Recirculating still)

## CC(C)OCCO [2-isopropoxyethanol]
398.12 K
  vapor or sublimation pressure: 60 ± 0.1 kPa
407.13 K
  vapor or sublimation pressure: 80 ± 0.1 kPa
414.21 K
  vapor or sublimation pressure: 100 ± 0.1 kPa

## CCCCCCC [heptane]
354.72 K
  vapor or sublimation pressure: 60 ± 0.1 kPa
363.74 K
  vapor or sublimation pressure: 80 ± 1 kPa
371.2 K
  vapor or sublimation pressure: 100 ± 0.1 kPa

## CCCCCC [hexane]
326.11 K
  vapor or sublimation pressure: 60 ± 0.1 kPa
334.61 K
  vapor or sublimation pressure: 80 ± 0.1 kPa
341.48 K
  vapor or sublimation pressure: 100 ± 0.1 kPa
